From PubChem BioAssay (NCI)
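A five-concentration, 48-hour dose response in 96-well plates underlies each endpoint, interpolated linearly between surrounding concentrations. Here, GI50 denotes the concentration required for 50% inhibition of growth. TGI marks complete inhibition of growth.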

Legend:
Test in all cases: inhibition of tumour cell growth, NCI panel, 48 h
[1] = test system: 786-0 renal
[2] = test system: A498 renal
[3] = test system: A549 NSCLC
[4] = test system: ACHN renal
[5] = test system: BT-549 breast
[6] = test system: CAKI-1 renal
[7] = test system: CCRF-CEM leukemia
[8] = test system: COLO 205 colon
[9] = test system: DU-145 prostate
[10] = test system: EKVX NSCLC
[11] = test system: HCC-2998 colon
[12] = test system: HCT-116 colon
[13] = test system: HCT-15 colon
[14] = test system: HL-60(TB) leukemia
[15] = test system: HOP-62 NSCLC
[16] = test system: HOP-92 NSCLC
[17] = test system: HS 578T breast
[18] = test system: HT29 colon
[19] = test system: IGROV1 ovarian
[20] = test system: K-562 leukemia
[21] = test system: KM12 colon
[22] = test system: LOX IMVI melanoma
[23] = test system: M14 melanoma
[24] = test system: MALME-3M melanoma
[25] = test system: MCF7 breast
[26] = test system: MDA-MB-435
[27] = test system: MOLT-4 leukemia
[28] = test system: NCI-H226 lung
[29] = test system: NCI-H23 lung
[30] = test system: NCI-H460 lung
[31] = test system: NCI-H522 lung
[32] = test system: NCI/ADR-RES ovarian
[33] = test system: OVCAR-3 ovarian
[34] = test system: OVCAR-4 ovarian
[35] = test system: OVCAR-5 ovarian
[36] = test system: OVCAR-8 ovarian
[37] = test system: PC-3 prostate
[38] = test system: RPMI-8226 leukemia
[39] = test system: RXF 393 renal
[40] = test system: SF-268 CNS
[41] = test system: SF-295 CNS
[42] = test system: SF-539 CNS
[43] = test system: SK-MEL-28 melanoma
[44] = test system: SK-MEL-5 melanoma
[45] = test system: SN12C renal
[46] = test system: SNB-19 CNS
[47] = test system: SNB-75 CNS
[48] = test system: SR leukemia
[49] = test system: SW-620 colon
[50] = test system: T-47D breast
[51] = test system: TK-10 renal
[52] = test system: U251 CNS
[53] = test system: UACC-257 melanoma
[54] = test system: UACC-62 melanoma
[55] = test system: UO-31 renal
[56] = test system: MDA-MB-231 breast
[57] = test system: SK-MEL-2 melanoma
[58] = test system: SK-OV-3 ovarian

With `COC(=O)c1ccc(C)cc1/C=C1\Cc2ccc(C)cc2C1=O` the TGI [1] was 50 µM, the TGI [2] was 47.9 µM and the TGI [3] was 98.4 µM. The TGI [4] was greater than 100 µM, the TGI [5] was 30 µM and the TGI [6] was 94.3 µM. For the same molecule, the TGI [7] was greater than 100 µM, the TGI [8] was 25.1 µM and the TGI [9] was 39 µM. The TGI [10] was 88.4 µM, the TGI [11] was 38.4 µM and the TGI [12] was 23.2 µM. It also gave a TGI [13] of 43.1 µM, a TGI [14] of 18.2 µM and a TGI [15] of 39.5 µM. It also gave a TGI [16] of 35.2 µM, a TGI [17] of 59.4 µM and a TGI [18] of 40.9 µM. The TGI [19] was 45.8 µM, the TGI [20] was 42.8 µM and the TGI [21] was 33.8 µM. It also gave a TGI [22] of 25.6 µM, a TGI [23] of 33.5 µM and a TGI [24] of 30.1 µM. The TGI [25] was 40.6 µM, the TGI [26] was 20.2 µM and the TGI [27] was greater than 100 µM. For the same molecule, the TGI [28] was 24.9 µM, the TGI [29] was 99.4 µM and the TGI [30] was greater than 100 µM. It also gave a TGI [31] of 45 µM, a TGI [32] greater than 100 µM and a TGI [33] of 31.2 µM. It also gave a TGI [34] of 46.1 µM, a TGI [35] of 42.3 µM and a TGI [36] of 59 µM. The TGI [37] was greater than 100 µM, the TGI [38] was 39.6 µM and the TGI [39] was 31.9 µM. For the same molecule, the TGI [40] was 48.4 µM, the TGI [41] was 41.1 µM and the TGI [42] was 28.3 µM. For the same molecule, the TGI [43] was 34.6 µM, the TGI [44] was 29.7 µM and the TGI [45] was 32.9 µM. For the same molecule, the TGI [46] was 68.7 µM, the TGI [47] was 44 µM and the TGI [48] was 9.13 µM. The TGI [49] was 51.3 µM, the TGI [50] was 69.6 µM and the TGI [51] was 42.4 µM. The TGI [52] was 32.3 µM, the TGI [53] was 51.5 µM and the TGI [54] was 26.7 µM. The TGI [55] was 26.3 µM.
`O=C(Nc1ccccc1)NS(=O)(=O)c1ccc(-n2nc3c(c2-c2ccc(Cl)cc2)Cc2ccccc2-3)cc1` was tested, and the GI50 [1] was 27.5 µM, the TGI [1] was greater than 100 µM and the GI50 [2] was 21.8 µM. For the same molecule, the TGI [2] was 66.8 µM, the GI50 [3] was 24.5 µM and the TGI [3] was greater than 100 µM. The GI50 [4] was 12.9 µM, the TGI [4] was 71.8 µM and the GI50 [5] was 21 µM. The TGI [5] was 65.9 µM, the GI50 [6] was 4.37 µM and the TGI [6] was 29.2 µM. It also gave a GI50 [7] of 3.21 µM, a TGI [7] of 10.2 µM and a GI50 [8] of 23.5 µM. It also gave a TGI [8] of 64.9 µM, a GI50 [9] of 19.4 µM and a TGI [9] of 47 µM. For the same molecule, the GI50 [10] was 15.8 µM, the TGI [10] was 78.9 µM and the GI50 [12] was 22.5 µM. It also gave a TGI [12] greater than 100 µM, a GI50 [13] of 18.5 µM and a TGI [13] of 69.7 µM. For the same molecule, the GI50 [14] was 13.4 µM, the TGI [14] was 35.6 µM and the GI50 [15] was 72 µM. For the same molecule, the TGI [15] was greater than 100 µM, the GI50 [16] was 17.1 µM and the TGI [16] was 67 µM. For the same molecule, the GI50 [17] was 19.6 µM, the TGI [17] was 82.3 µM and the GI50 [18] was 29.8 µM. For the same molecule, the TGI [18] was greater than 100 µM, the GI50 [19] was 28.5 µM and the TGI [19] was greater than 100 µM. The GI50 [20] was 4.66 µM, the TGI [20] was 21.9 µM and the GI50 [21] was 16 µM. For the same molecule, the TGI [21] was 55.1 µM, the GI50 [22] was 15.3 µM and the TGI [22] was 46.4 µM. For the same molecule, the GI50 [23] was 34.5 µM, the TGI [23] was greater than 100 µM and the GI50 [25] was 11.2 µM. It also gave a TGI [25] of 28.2 µM, a GI50 [56] of 14.7 µM and a TGI [56] of 63.3 µM. For the same molecule, the GI50 [26] was 16.8 µM, the TGI [26] was 52.7 µM and the GI50 [27] was 7.05 µM. For the same molecule, the TGI [27] was 42.4 µM, the GI50 [28] was 15.5 µM and the TGI [28] was 61.9 µM. It also gave a GI50 [30] of 22.3 µM, a TGI [30] of 85.1 µM and a GI50 [31] of 19 µM. It also gave a TGI [31] of 67.4 µM, a GI50 [33] of 18.3 µM and a TGI [33] of 54.2 µM. For the same molecule, the GI50 [34] was 45.2 µM, the TGI [34] was greater than 100 µM and the GI50 [36] was 24.7 µM. It also gave a TGI [36] of 86.8 µM, a GI50 [37] of 16.7 µM and a TGI [37] of 47.8 µM. For the same molecule, the GI50 [38] was 16.5 µM, the TGI [38] was 48.9 µM and the GI50 [39] was 22.2 µM. For the same molecule, the TGI [39] was 85.7 µM, the GI50 [40] was 14.8 µM and the TGI [40] was 88.2 µM. The GI50 [41] was 18.2 µM, the TGI [41] was 78.1 µM and the GI50 [42] was 18.8 µM. The TGI [42] was 45.6 µM, the GI50 [57] was 27.4 µM and the TGI [57] was 91.8 µM. The GI50 [43] was 33.7 µM, the TGI [43] was greater than 100 µM and the GI50 [44] was 22 µM. It also gave a TGI [44] of 69.8 µM, a GI50 [58] of 53.9 µM and a TGI [58] greater than 100 µM. It also gave a GI50 [45] of 23.2 µM, a TGI [45] of 66.6 µM and a GI50 [46] of 61.5 µM. It also gave a TGI [46] greater than 100 µM, a GI50 [47] of 48.7 µM and a TGI [47] greater than 100 µM. For the same molecule, the GI50 [48] was 2.82 µM, the TGI [48] was 7.18 µM and the GI50 [49] was 23 µM. It also gave a TGI [49] of 55.4 µM, a GI50 [50] of 49.9 µM and a TGI [50] greater than 100 µM. For the same molecule, the GI50 [51] was 18.3 µM, the TGI [51] was 74.4 µM and the GI50 [52] was 22.3 µM. The TGI [52] was 63.2 µM, the GI50 [53] was 37.1 µM and the TGI [53] was greater than 100 µM. The GI50 [54] was 12.2 µM, the TGI [54] was 30.6 µM and the GI50 [55] was 24.5 µM. It also gave a TGI [55] greater than 100 µM.
